Test results taken from patent US8518677B2, “Microbial bioreaction process” (Evolva Sa, priority 2007, dated 2013).

What was measured:
[1] = test system: S. cerevisiae strain PALCPR; test: Growth of evolved PALCPR strains in the presence of extraction solvent (CO2 production); type: cell-based; conditions: PALCPR-evolved-III from glycerol stock; 100 ml solvent from start, 800 rpm
Procedure: The cells of the PALCPR-solvent culture described in the previous example were taken as starting point because the presence of the solvent mixture would possibly have already evoked adaptation of cells to solvents. For that, cells of the culture described in the previous example were harvested during mid-exponential-phase and stored at −80° C. in 15% glycerol and subsequently a fermentor, containing the same medium as described in the previous example with 10 g/l glucose and 100 g/l galactose, was then inoculated with cells of said PALCPR-solvent culture. The cells were allowed to fully consume the glucose at a stirring speed of 1000 rpm with an average dissolved oxygen content of above 70% of saturated air. At the onset of galactose consumption, the stirring rate was turned down to 300 rpm, after which slowly 100 ml of octylacetate was added.
Galactose consumption indeed commenced again. A small arrest in CO2 production again occurred after 20 hours which, however, recovered after 5 hours, after which the cells grew exponentially with concomitant production of CO2, consumption of galactose within less than 40 hours. Based upon the CO2 production the specific growth rate was estimated to be 0.062 1/h (FIG. 2). The final biomass concentration was 21.6 g/l.
In order to further improve said strain in terms of length of lag-phase and growth rate, a 25 ml aliquot of the exponentional growing PALCPR-evolved-I strain was used to inoculate a fermentor, containing a similar medium as described in the previous example. However, the medium now only contained 100 g/l galactose and did contain 100 ml of octylacetate from the beginning of the fermentation. In addition, the stirrer speed was instantly set at 800 rpm. Upon inoculation of the fermentor, consumption of galactose only commenced after approximately 40 hours, indicated by a slow increase in CO2 signal, a decrease in dissolved oxygen and addition of base. Indeed the cells continued to grow exponentially with concomitant production of CO2, and consumed the galactose within less than 90 hours. Based upon the CO2 production the specific growth rate was estimated to be 0.041 1/h (FIG. 3). The final biomass concentration was 21.5 g/l. The strain is referred to as PALCPR-evolved-II.
Therefore, to further improve said strain in terms of both length of lag-phase and growth rate, a 50 ml aliquot of the exponentional growing PALCPR-evolved-II strain was used to inoculate a fermentor, containing a similar medium as described in the previous example (thus containing 100 g/l galactose 100 ml of octylacetate from the beginning of the fermentation). The stirrer speed was instantly set at 800 rpm. Upon inoculation of the fermentor, consumption of galactose already commenced after less then 20 hours, indicated by a slow increase in CO2 signal, a decrease in dissolved oxygen and addition of base. Indeed the cells further grew exponentially with concomitant production of CO2, and now consumed the galactose within approximately 50 hours. Based upon the CO2 production the specific growth rate was estimated to be 0.091 1/h (FIG. 4). The final biomass concentration was 18.9 g/l. The strain is referred to as PALCPR-evolved-III.
The evolved PALCPR-evolved-III strain described in the previous example was grown in the presence of nonyl-acetate, a similar solvent as octylacetate with one additional carbon atom. A 1 ml aliquot of a glycerol stock that was made from an exponentional growing PALCPR-evolved-III strain was used to inoculate a fermentor, containing a similar medium as described in the previous example, containing only 100 g/l galactose and 100 ml of nonyl-acetate from the beginning of the fermentation. The stirrer speed was instantly set at 800 rpm. Upon inoculation of the fermentor, consumption of galactose only commenced after approximately 70 hours, indicated by a slow increase in CO2 signal, a decrease in dissolved oxygen and addition of base. […]

[2] = test system: S. cerevisiae strain FS09229; test: Growth of non-evolved strain FS09229 in the presence of extraction solvent (CO2 production); type: cell-based; conditions: 100 ml solvent from start, 800 rpm
Procedure: The non-evolved FS09229 strain described in previous examples was grown in the presence of nonyl-acetate. A 1 ml aliquot of a glycerol stock that was made from an exponentional growing FS09229 strain was used to inoculate a fermentor, containing a similar medium as described in the previous example, but now containing 100 g/l glucose and 100 ml of nonyl-acetate from the beginning of the fermentation. The stirrer speed was instantly set at 800 rpm. Upon inoculation of the fermentor, a long lag-phase of approximately 70 hrs set-in, during which an apparent adaptation to the solvent took place. Consumption of glucose only then commenced, indicated by a slow increase in CO2 signal, a decrease in dissolved oxygen and addition of base. Indeed the cells continued to grow exponentially with concomitant production of CO2, and consumed the glucose within less than 25 hours. […] The final biomass concentration was 15.5 g/l. The cultivation will be referred to as FS09229-solvent. As a control-experiment said strain was grown in the similar medium without the addition of nonyl-acetate. Upon inoculation of the fermentor, consumption of glucose commenced already after approximately 10 hours, indicated by an increase in CO2 signal, a decrease in dissolved oxygen and addition of base. […]

[3] = partition coefficient between water and octanol; cited from earlier work

SMILES: CCCCCCCCCOC(C)=O [nonyl-acetate]
- lag-phase until galactose consumption commenced [1]: approximately 70 hours
- specific growth rate [1]: 0.098 h⁻¹
- lag-phase [2]: approximately 70 hrs
- specific growth rate ([2]; 100 g/l glucose): 0.176 h⁻¹
- logP [3]: 4.2
